# Measured values as given in patent US8134006B2, “Dialkylphenyl compounds having β2 adrenergic receptor agonist and muscarinic receptor antagonist activity” (Theravance, Inc., priority 2006, dated 2012).
# Key:
# [1] = system: acetylcholine or histamine bronchoconstriction; experiment: Plethysmograph guinea pig assay for bronchoprotective efficacy and duration; details: doses ranging from 3 μg/mL to 300 μg/mL, inhalation
# Description: In this assay, the bronchoprotective efficacy and duration of test compounds was determined using a guinea pig assay.
# Groups of 6 male guinea pigs (Duncan-Hartley (HsdPoc:DH) Harlan, Madison, Wis.) weighing between 250 and 350 g were individually identified by cage cards. Throughout the study, animals were allowed access to food and water ad libitum. Test compounds were administered via inhalation over 10 minutes in a whole-body exposure dosing chamber (R&S Molds, San Carlos, Calif.). The dosing chambers were arranged so that an aerosol was simultaneously delivered to 6 individual chambers from a central manifold. Guinea pigs were exposed to an aerosol of a test compound or vehicle (WFI). […] The gas flow through the nebulizer at this operating pressure was approximately 3 L per minute. […] This value was measured gravimetrically by comparing pre- and post-nebulization weights of the filled nebulizer. […]
# The pulmonary evaluation was initiated after determining that baseline values were within the range of 0.3 to 0.9 mL per cm H2O for compliance and within the range of 0.1 to 0.199 cm H2O per mL per second for resistance. […] The changes in volume over time that occurred within the plethysmograph with each breath were measured via a Buxco pressure transducer. By integrating this signal over time, a measurement of flow was calculated for each breth. […]
# bronchoconstriction = experiment: Einthoven assay, duration of bronchoprotection; details: inhalation
# Description: (§1) In this assay, the bronchoprotective efficacy and duration of test compounds were determined using guinea pigs. […] In this assay, changes in ventilation pressure serve as a surrogate measure of airway resistance. Following pre-treatment with a test compound, muscarinic antagonist potency was determined using bronchoconstrictor dose-response curves to intravenous methacholine in the presence of propranolol. Similarly, β2 agonist bronchoprotective potency was determined using histamine. Combined bronchoprotective potency was determined using methacholine in the absence of propranolol.
# (§2) The assay was conducted using male Duncan-Hartley guinea pigs (Harlan, Indianapolis, Ind.), weighing between 250 and 400 g. A test compound or vehicle (i.e., sterile water) was dosed by inhalation (IH) over a 10 minute time period in a whole body exposure dosing chamber (R+S Molds, San Carlos, Calif.) using 5 mL of dosing solution. […] Pulmonary function was evaluated at various time points after inhalation dosing.
# (§3) The trachea was then dissected free and cannulated with a 14G needle (#NE-014, Small Parts, Miami Lakes, Fla.). […] Body temperature was maintained at 37° C. using a heating pad. […] The changes in VP were recorded on a Biopac Windows data collection interface. […] Changes in VP were recorded using the Acknowledge Data Collection Software (Santa Barbara, Calif.). […]
# (§4) Change in VP was measured in cm of water. […]
# [2] = molecular target: T1, human β2 adrenergic receptor (Homo sapiens, UniProt P07550); experiment: Whole-cell cAMP Flashplate assay with lung epithelial cell line (BEAS-2B) endogenously expressing β2 receptor; assay type: cell-based; details: BEAS-2B cells, compared with full β2 agonist isoproterenol (1.0)
# T1 construct: a cell line expressing endogenous levels of the β2 adrenergic receptor; host or cells: BEAS-2B human lung epithelial cell line
# Description: In this assay, the agonist potency and intrinsic activity of a test compound were determined using a cell line expressing endogenous levels of the β2 adrenergic receptor.
# On the day of the assay, cells were rinsed with PBS, lifted by scraping with 5 mM EDTA in PBS, and counted. Cells were pelleted by centrifugation at 1,000 rpm and re-suspended in stimulation buffer pre-warmed to 37° C. at a final concentration of 600,000 cells/mL. Cells were used at a final concentration of 100,000 to 120,000 cells/well in this assay. […] Plates were sealed, incubated over night at 4° C. and counted the next morning in a Topcount scintillation counter (Packard BioScience Co., Meriden, Conn.). […] Data were analyzed by nonlinear regression analysis with the GraphPad Prism Software package (GraphPad Software, Inc., San Diego, Calif.) using the 4-parameter model for sigmoidal dose-response.
# [3] = system: histamine-induced bronchoconstriction; experiment: Einthoven assay, bronchoprotective efficacy against histamine; details: 1.5 hours post-dose, inhalation
# Description: as §1, §2, §3, §4
# cM5 receptor = cM5 receptor (UniProt Q5IS53); experiment: Blockade of agonist-mediated calcium release via FLIPR; assay type: cell-based; details: CHO cells expressing cM5, read-out: Kobs
# Description: In this functional assay, the functional potency of a test compound as an antagonist of hM1, hM3 and […] receptors was determined by measuring the ability of the test compound to inhibit agonist-mediated increases in intracellular calcium.
# CHO cells stably expressing the receptors were seeded into 96-well FLIPR plates the night before the assay was done. Seeded cells were washed twice with FLIPR buffer (10 mM HEPES, pH 7.4, 2 mM calcium chloride, 2.5 mM probenecid in Hank's Buffered Salt Solution (HBSS) without calcium and magnesium) using Cellwash (MTX Labsystems, Inc.) to remove growth media. After washing, each well contained 50 μL of FLIPR buffer. […]
# The dose-dependent stimulation of intracellular Ca^2+ release for oxotremorine was determined so that the test compound could be measured against oxotremorine stimulation at an EC90 concentration. […]
# The parameters used for the FLIPR were: exposure length of 0.4 seconds, laser strength of 0.5 watts, excitation wavelength of 488 nm, and emission wavelength of 550 nm. Baseline was determined by measuring the change in fluorescence for 10 seconds prior to addition of oxotremorine. Following oxotremorine stimulation, the FLIPR continuously measured the change of fluorescence every 0.5 to 1 second for 1.5 minutes to capture the maximum fluorescence change. […]
# [4] = system: methacholine-induced bronchoconstriction; experiment: Einthoven assay, bronchoprotective efficacy against methacholine; details: 1.5 hours post-dose, inhalation
# Description: as §1, §2, §3, §4
# T1 sequence (P07550 whole entry): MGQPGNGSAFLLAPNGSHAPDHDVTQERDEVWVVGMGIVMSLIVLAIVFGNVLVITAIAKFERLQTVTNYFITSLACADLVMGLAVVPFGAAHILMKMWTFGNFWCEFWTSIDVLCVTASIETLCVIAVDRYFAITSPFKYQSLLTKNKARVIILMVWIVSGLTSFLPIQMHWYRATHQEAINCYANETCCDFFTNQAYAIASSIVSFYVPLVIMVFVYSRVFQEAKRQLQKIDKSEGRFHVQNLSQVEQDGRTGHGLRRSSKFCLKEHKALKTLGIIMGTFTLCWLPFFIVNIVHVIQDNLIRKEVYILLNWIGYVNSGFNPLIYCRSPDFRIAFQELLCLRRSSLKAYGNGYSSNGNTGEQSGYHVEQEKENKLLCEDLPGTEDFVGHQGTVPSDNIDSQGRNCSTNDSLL
# Chain of cM5 receptor (Q5IS53 whole entry): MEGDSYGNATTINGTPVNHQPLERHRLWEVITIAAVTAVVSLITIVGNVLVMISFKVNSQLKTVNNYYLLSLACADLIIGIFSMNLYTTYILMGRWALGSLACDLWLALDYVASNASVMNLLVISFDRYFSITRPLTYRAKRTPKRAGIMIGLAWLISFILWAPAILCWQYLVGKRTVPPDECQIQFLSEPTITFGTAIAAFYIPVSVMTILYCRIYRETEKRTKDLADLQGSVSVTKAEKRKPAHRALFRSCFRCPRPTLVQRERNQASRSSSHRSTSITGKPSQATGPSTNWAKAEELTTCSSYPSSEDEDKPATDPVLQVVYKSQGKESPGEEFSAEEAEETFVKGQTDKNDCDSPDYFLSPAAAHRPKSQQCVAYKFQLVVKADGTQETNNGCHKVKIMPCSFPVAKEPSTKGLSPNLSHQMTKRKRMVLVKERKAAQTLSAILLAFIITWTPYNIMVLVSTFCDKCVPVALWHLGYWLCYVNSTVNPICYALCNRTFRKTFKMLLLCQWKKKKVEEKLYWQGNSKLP
compound,measurement,setting,value
O=CNc1cc([C@@H](O)CNCc2ccc(NC(=O)CCN3CCC(OC(=O)Nc4ccccc4-c4ccccc4)CC3)cc2)ccc1O [compound 50],bronchoprotection at 24 hours post-dose,[1],no significant bronchoprotection
"Cc1cc(NC(=O)CCN2CCC(OC(=O)Nc3ccccc3-c3ccccc3)CC2)c(C)cc1CNC[C@H](O)c1ccc(O)c(NC=O)c1 [compound IIa, biphenyl-2-ylcarbamic acid 1-[2-(4-{[(R)-2-(3-formylamino-4-hydroxyphenyl)-2-hydroxyethylamino]methyl}-2,5-dimethylphenylcarbamoyl)ethyl]piperidin-4-yl ester]",duration of significant bronchoprotection,bronchoconstriction; single sub-maximal dose 100 μg/mL,up to 72 hours
same,intrinsic activity,[2],greater than 0.3
same,ID50,[3],less than 50 μg/mL
same,Ki,cM5 receptor,< 10 nM
same,ID50,[4],less than 50 μg/mL
"C[N+]1(C)[C@@H]2C[C@@H](OC(=O)C(O)(c3cccs3)c3cccs3)C[C@H]1[C@@H]1O[C@@H]12 [tiotropium, reference compound]",duration of significant bronchoprotection,bronchoconstriction; 10 μg/mL,greater than 72 hours
